In the assay the target is hNOX enzymes. Description: ROS production measurement on hNOX membranes (Amplex Red fluorescence assay, assay 1). In kind it is biochemical, human. As to conditions: membranes from CHO or HEK cells overexpressing hNox enzymes; Nox isoform not stated; non linear regression; read-out: Nox inhibitory constant Ki. As to the method: Reactive oxygen species (ROS) production generated by hNOX enzymes was measured by fluorescence in both cellular and membrane-based assays using the Amplex® Red reagent. In the presence of horseradish peroxidase (HRP), the Amplex® Red reagent (10-acetyl-3,7-dihydroxyphenoxazine, AR), which is a colorless and nonfluorescent derivative of dihydroresorufin, reacts with H2O2 with a 1:1 stoichiometry to produce highly fluorescent resorufin at an excitation and emission wavelengths of 544 nm and 590 nm, respectively.
Membranes from CHO or HEK cells overexpressing hNox enzymes were prepared as previously described (Palicz et al., 2001, J. Biol. Chem, 76, 3090). After resuspension in sonication buffer (11% sucrose, 120 mM NaCl, 1 mM EGTA in PBS, pH 7.4), cells were broken by sonication and centrifuged (200 g, 10 min). The supernatant was layered onto a 17/40% (w/v) discontinuous sucrose gradient and centrifuged (150,000 g for 30 min). Membrane fractions were collected from the 17/40% interface, aliquoted in 10 μl samples and were stored at −80° C. Protein concentration was determined with Bradford reagent. Flavin Adenine Dinucleotide (FAD) (catalog #F6625-500MG), MgCl2 (catalog #M8266-100G), Phosphatidic Acid (PA) (catalog #P3591-50MG) were purchased from Sigma-Aldrich. Horseradish peroxidase (HRP) (catalog #10108090001) was purchased from Roche. NADPH (catalog #A1395, 0500) was purchased from Applichem. Amplex red (AR) (catalog #A22177) was purchased from Invitrogen. 96 well polypropylene and black plates were purchased from Milian (catalog #055529 and #055218, respectively). FLUOstar OPTIMA microplate reader was supplied by BMG Labtech (Germany). Zephyr® Compact Liquid Handling Workstation was supplied by PerkinElmer (Germany).
Assay 1: ROS Production Measurement on hNOX Membranes
All Solutions were placed on ice and protected from light. The final concentration in the 1× hNOX membrane fluorescent assay buffer were PBS pH7, 6 μM FAD, 15 μM PA, 1 mM MgCl2, 12.5 μM AR, 0.02 u/ml, 125 ng membranes, 1.5 μg of cofactors and 30 μM NADPH. The NADPH was dissolved in water at a concentration of 12 mM and was transferred in a metal transfer plate kept at 4° C. The NADPH was added to the assay plate to initiate the reaction just before the measurement.
Serial dilution (1:3, 10 serial dilution) of the compounds was performed in 100% DMSO in 96 well polypropylene plate—Row B—H Column 1-10, Row A, Column 1-10 contained reference compound. Starting concentration was 10^−2 M (10 mM). Final concentration in assay was 10^−4 M (100 μM). Compounds were diluted twice in PBS buffer by transferring 30 μl/well of PBS into 30 μl/well compounds sample in DMSO using Zephyr® Compact Liquid Handling Workstation. Control wells-columns 1 and 12-contained 60 μl DMSO in 50% PBS pH7.
Reaction mixture is dispensed using Zephyr® Compact Liquid Handling Workstation. 90 μl of mix with membrane were dispensed into 96 well black plates—Column 2-11, Column 1 Row A-D, Column 12 Row E-H. 90 μl of control mix were dispensed into assay plate—Column 1 Row E-H, Column 12 Row A-D, which are wells for measuring background signal. 2 μl of compounds were dispensed into each well of assay plate using Zephyr® Compact Liquid Handling Workstation. The reaction mixture with compounds was incubated in assay plates for 20 min at 37° C. in a Titramax microplate incubator with gentle agitation. 10 μl of NADPH is dispensed to the assay plate. Fluorescence reading was recorded with the FLUOstar OPTIMA microplate reader for 10 min at 37° C. (8 cycles, 1 cycle duration 55 sec).
The Table 14 below summarizes the inhibition of NOX activity as measured by the above described assay 1 and expressed by their inhibitory constant calculated by non linear regression analysis using GraphPad Prism Software (GraphPad Software Co., San Diego, CA): […]
With `Cc1cc(-c2cc3cc(-c4cncc(N(C)C)c4)ccc3[nH]2)ccn1` [Example 9, N,N-dimethyl-5-(2-(2-methylpyridin-4-yl)-1H-indol-5-yl)pyridin-3-amine], the Ki (commonly a measure of affinity in units of concentration, obtained from inhibition or displacement) came out at 805 nM.

For `COc1cncc(-c2ccc3[nH]c(-c4ccnc(C5CC5)c4)cc3c2)c1` [Example 19, 2-(2-cyclopropylpyridin-4-yl)-5-(5-methoxypyridin-3-yl)-1H-indole], the inhibition constant (Ki) was 231 nM.

Turning to `COc1cncc(-c2ccc3[nH]c(-c4ccc(C5COC5)nc4)cc3c2)c1` [Example 27, 5-(5-methoxypyridin-3-yl)-2-(6-(oxetan-3-yl)pyridin-3-yl)-1H-indole], the Ki came to 147 nM.

On to `Cc1c(-c2ccncc2)ccc2[nH]c(-c3ccncc3)cc12` [Example 69], for which the inhibition constant (Ki) is 601 nM.

Turning to `COc1cncc(-c2cc3cc(-c4ccc(N5CC(C(=O)O)C5)nc4)[nH]c3cc2Cl)c1` [Example 39, 1-(5-(6-chloro-5-(5-methoxypyridin-3-yl)-1H-indol-2-yl)pyridin-2-yl)azetidine-3-carboxylic acid], the Ki amounted to 345 nM.

For the molecule `COc1cncc(-c2ccc3[nH]c(-c4ccnc(N5CC(O)C5)c4)cc3c2)c1` [Example 20, 1-(4-(5-(5-methoxypyridin-3-yl)-1H-indol-2-yl)pyridin-2-yl)azetidin-3-ol], the Ki stood at 158 nM.

Turning to `COc1cncc(-c2cc3cc(-c4ccc(=O)n(C)c4)[nH]c3cc2Cl)c1` [Example 57, 5-(6-chloro-5-(5-methoxypyridin-3-yl)-1H-indol-2-yl)-1-methylpyridin-2(1H)-one], the Ki amounted to 142 nM.

Take `Cc1cc(-c2ccc3[nH]c(-c4ccc(N(C)C)nc4)cc3c2)ccn1` [Example 29, N,N-dimethyl-5-(5-(2-methylpyridin-4-yl)-1H-indol-2-yl)pyridin-2-amine]: the Ki amounted to 206 nM.

With `COc1cncc(-c2cc(Cl)c3[nH]c(-c4ccc(N5CCOCC5)nc4)cc3c2)c1` [Example 59], the Ki is 552 nM.

Consider `COc1cncc(-c2cc3cc(-c4ccc(C(O)C5COC5)nc4)[nH]c3cc2Cl)c1` (centres unmarked) [Example 54, (5-(6-chloro-5-(5-methoxypyridin-3-yl)-1H-indol-2-yl)pyridin-2-yl)(oxetan-3-yl)methanol], for which the Ki was found to be 415 nM.

For the molecule `COc1cncc(-c2ccc3[nH]c(-c4ccnc(N5CCC5)c4)cc3c2)c1` [Example 13, 2-(2-(azetidin-1-yl)pyridin-4-yl)-5-(5-methoxypyridin-3-yl)-1H-indole], the Ki was found to be 315 nM.

As for `COc1ccc2c(-c3cc4cc(-c5ccc(N6CCOCC6)nc5)[nH]c4cc3Cl)cccc2n1` [Example 92], the Ki worked out at 770 nM.

Regarding `COc1cncc(-c2ccc3[nH]c(-c4csc(C)n4)cc3c2)c1` [Example 18, 4-(5-(5-methoxypyridin-3-yl)-1H-indol-2-yl)-2-methylthiazole], the Ki was found to be 958 nM.

With `COc1cncc(-c2ccc3[nH]c(-c4ccnc(N5CCOCC5)c4)cc3c2)c1` [Example 23], the Ki was determined as 296 nM.

As for `Cc1cc(-c2cc3cc(-c4ccc5[nH]c(C)nc5c4)ccc3[nH]2)ccn1` [Example 12, 2-methyl-5-(2-(2-methylpyridin-4-yl)-1H-indol-5-yl)-1H-benzo[d]imidazole], the Ki is 590 nM.

As for `Clc1cncc(-c2cc3cc(-c4ccc(N5CCOCC5)nc4)[nH]c3cc2Cl)c1` [Example 62], the inhibition constant (Ki) amounted to 136 nM.

Regarding `COc1cc(-c2ccc3[nH]c(-c4ccnc(C)c4)cc3c2)ccn1` [Example 1, 5-(2-methoxypyridin-4-yl)-2-(2-methylpyridin-4-yl)-1H-indole], the Ki came out at 486 nM.

For the molecule `COc1cc(-c2ccc3[nH]c(-c4ccnc(C)c4)cc3c2)cnc1OCc1ccccc1` [Example 83], the inhibitory constant (Ki) is 657 nM.

Regarding `COc1cncc(-c2ccc3[nH]c(-c4ccncn4)cc3c2)c1` [Example 109], the Ki turned out to be 806 nM.

For the molecule `COc1cncc(-c2cc3cc(-c4ccc(N5CCS(=O)(=O)CC5)nc4)[nH]c3cc2Cl)c1` [Example 49, 4-(5-(6-chloro-5-(5-methoxypyridin-3-yl)-1H-indol-2-yl)pyridin-2-yl)thiomorpholine 1,1-dioxide], the Ki was found to be 105 nM.

On to `COc1cncc(-c2cc3cc(-c4ccc(N5CCC56COC6)nc4)[nH]c3cc2Cl)c1` [Example 32, 1-(5-(6-chloro-5-(5-methoxypyridin-3-yl)-1H-indol-2-yl)pyridin-2-yl)-6-oxa-1-azaspiro[3.3]heptane], for which the Ki was found to be 27 nM.

On to `COc1cncc(-c2cc3cc(-c4ccc(N5CCOCC5)nc4)n(C)c3cc2Cl)c1` [Example 112], for which the Ki was 170 nM.

For `COc1cncc(-c2ccc3c(c2)cc(-c2ccnc(C)c2)n3C(C)C)c1` [Example 111, 1-isopropyl-5-(5-methoxypyridin-3-yl)-2-(2-methylpyridin-4-yl)-1H-indole], the Ki stood at 533 nM.

`COc1cncc(-c2ccc3[nH]c(-c4ccnc(C)c4)cc3c2Cl)c1` [Example 65]: the Ki worked out at 122 nM.

For the molecule `COc1cncc(-c2cc3cc(-c4cnc5c(c4)OCCN5C)[nH]c3cc2Cl)c1` [Example 53, 7-(6-chloro-5-(5-methoxypyridin-3-yl)-1H-indol-2-yl)-4-methyl-3,4-dihydro-2H-pyrido[3,2-b][1,4]oxazine], the Ki stood at 23 nM.

Turning to `Fc1ccc2nccc(-c3cc4cc(-c5ccc(N6CCOCC6)nc5)[nH]c4cc3Cl)c2c1` [Example 90], the Ki turned out to be 205 nM.

With `COc1cncc(-c2cc3cc(-c4ccnc(N5CCC56COC6)c4)[nH]c3cc2Cl)c1` [Example 33, 1-(4-(6-chloro-5-(5-methoxypyridin-3-yl)-1H-indol-2-yl)pyridin-2-yl)-6-oxa-1-azaspiro[3.3]heptane], the Ki was 36 nM.

`Cc1cc(-c2cc3cc(-c4ccnc(N5CCC56COC6)c4)[nH]c3cc2Cl)ccn1` [Example 34, 1-(4-(6-chloro-5-(2-methylpyridin-4-yl)-1H-indol-2-yl)pyridin-2-yl)-6-oxa-1-azaspiro[3.3]heptane]: the Ki came out at 94 nM.

Turning to `Cc1cc(-c2cc3cc(-c4cncc(OCC5CC5)c4)ccc3[nH]2)ccn1` [Example 81], the Ki stood at 289 nM.

For the molecule `COCCn1c(-c2ccncc2)cc2cc(-c3ccncc3)ccc21` [Example 113, 1-(2-methoxyethyl)-2,5-di(pyridin-4-yl)-1H-indole], the Ki was 969 nM.

Consider `CN(C)c1cc(-c2cc3cc(-c4ccnc5ccc(F)cc45)ccc3[nH]2)ccn1` [Example 93, 4-(5-(6-fluoroquinolin-4-yl)-1H-indol-2-yl)-N,N-dimethylpyridin-2-amine], for which the Ki turned out to be 26 nM.

Consider `COc1cncc(-c2ccc3[nH]c(-c4ccnc(OC)c4)cc3c2)c1` [Example 14, 5-(5-methoxypyridin-3-yl)-2-(2-methoxypyridin-4-yl)-1H-indole], for which the Ki worked out at 41 nM.

With `Cc1cc(-c2ccc3[nH]c(-c4ccc(N5CCOCC5)nc4)cc3c2)ccn1` [Example 26], the Ki was determined as 221 nM.

Regarding `c1ccc2c(-c3ccc4[nH]c(-c5ccncc5)cc4c3)ccnc2c1` [Example 101], the Ki stood at 300 nM.

As to `Cc1cc(-c2cc3cc(-c4cncc(F)c4)ccc3[nH]2)ccn1` [Example 6, 5-(5-fluoropyridin-3-yl)-2-(2-methylpyridin-4-yl)-1H-indole], the Ki came out at 750 nM.

As for `COc1cncc(-c2ccc3c(cc(-c4cnc5c(c4)OCCN5C)n3C)c2Cl)c1` [Example 119], the Ki was 226 nM.

Regarding `COc1cncc(-c2cc3cc(-c4ccnc(C)c4)[nH]c3cc2C)c1` [Example 68], the Ki was 406 nM.

For the molecule `Clc1cc2[nH]c(-c3ccc(N4CCOCC4)nc3)cc2cc1-c1cncc2sccc12` [Example 89], the Ki was 103 nM.

Source of the values: patent publication US12202816B2 (CALLIDITAS THERAPEUTICS SUISSE SA, priority 2018, dated 2025).
